Values joined by “and” are separate entries in the source; they are usually repeats but may differ in a detail not shown here. Identical values can stand only once.
Tests used:
human esRAGE = human esRAGE (Homo sapiens, UniProt Q15109); experiment: Surface plasmon resonance (BIAcore) of oxytocin binding to immobilised esRAGE; conditions: SPR BIAcore 2000, immobilised recombinant human esRAGE (~5000 RU), 10 mM HEPES pH 7.4, 0.15 M NaCl, 25 °C; read-out: apparent dissociation constant (KD)
Experimental: Isolated human esRAGE was immobilised to BIAcore CM5 research grade sensor chips with the amine coupling kit to a density of ~5000 response units (RU)[27],[32],[41]. […] The sensor chips were regenerated with 10 mM NaOH and 0.5% SDS (W/V).

[1] = human or primate CSF, mammalian hippocampus and amygdala; cited from earlier work
[2] = Microperfusion of the amygdala, oxytocin in microperfusates; assay type: in vivo, mouse; conditions: intranasal 20 ng, 0 min = 100, individual animals, listed as OT
Text: For microperfusion probe implantation, the male mice were with a subcutaneous injections of ketamine. The heads of anesthetised mice were fixed in a stereotactic frame (Narishige, Tokyo, Japan) and a 1 mm hole was drilled in the skull. The intact dura intact was then punctured to create defined opening of the meninges. Using the stereotactic frame, a healing dummy was slowly inserted into the three brain positions. The probe was fixed to the skull by using two anchor screws and biocompatible dental cement. All surgical procedures were completed within 30 min. A healing dummy was used to provide mechanical stability during the implantation and the healing period of 2 weeks. The microperfusion probe (a 4-mm length of the coaxial tube, 2.5 mm in diameter) consisting of a 20 G fluorinated ethylene propylene guide cannula was replaced before sampling with an inflow/outflow tubing on the day of the experiments. This tubing was connected to two glass Hamilton microsyringes placed in syringe pumps (Eicom, Osaka, Japan). Microperfusate was pumped into the probe at a flow rate of 2 µl/min, and the samples were withdrawn at the same flow rate. Sampling was conducted for 2 h. Both microprobes were perfused without sampling for 60 min before the first 30-min microperfusates from the amygdala, PVN, and prefrontal cortex were collected. The microperfusates were mixed under sterile conditions and consisted of 154 mM NaCl, 2.2 mM CaCl2, 5.6 mM KCl, 2.3 mM NaHCO3, and 0.15% BSA (pH 7.4)[80]. Beginning immediately after the nasal application, 4 additional microperfusates were taken at 30-min intervals. After the termination of the experiments, the brains were removed and snap-frozen to obtain 40-μm cryo-cut stained brain slices later for the histological verification of the perfusion site.

Sequence of human esRAGE (Q15109 23-347 isoform Q15109-3 limits assumed): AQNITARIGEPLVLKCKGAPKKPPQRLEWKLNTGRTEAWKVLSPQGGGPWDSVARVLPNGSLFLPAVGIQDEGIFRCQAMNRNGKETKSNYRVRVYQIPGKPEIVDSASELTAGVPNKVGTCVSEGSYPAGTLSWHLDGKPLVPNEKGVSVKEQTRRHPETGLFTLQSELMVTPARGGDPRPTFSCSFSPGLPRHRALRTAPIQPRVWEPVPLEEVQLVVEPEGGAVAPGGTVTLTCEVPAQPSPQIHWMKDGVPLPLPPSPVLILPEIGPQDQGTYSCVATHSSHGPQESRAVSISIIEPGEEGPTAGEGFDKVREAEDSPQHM

SMILES: CC[C@H](C)[C@@H]1NC(=O)[C@H](Cc2ccc(O)cc2)NC(=O)[C@@H](N)CSSC[C@@H](C(=O)N2CCC[C@H]2C(=O)N[C@@H](CC(C)C)C(=O)NCC(N)=O)NC(=O)[C@H](CC(N)=O)NC(=O)[C@H](CCC(N)=O)NC1=O [oxytocin, Oxytocin]
- Kd (human esRAGE): 0.179 µM
- time of maximal oxytocin concentrations after peripheral administration [1]: 10 to 60 min
- OT % in microperfusates of the amygdala ([2]; Ager-/- mice, 30 min): 116% and 89% and 169% and 98% and 65% and 54% and 55% and 105% and 67% and 87% and 79%
- OT % in microperfusates of the amygdala ([2]; Ager-/- mice, 60 min): 66% and 55% and 85% and 123% and 83% and 92% and 78% and 84% and 76% and 112% and 77% and 93% and 79%
- OT % in microperfusates of the amygdala ([2]; Ager-/- mice, 90 min): 137% and 158% and 73% and 162% and 90% and 65% and 76% and 99% and 129% and 131% and 83% and 110% and 163%
- OT % in microperfusates of the amygdala ([2]; WT mice, 30 min): 211% and 198% and 89% and 141% and 104% and 174%
- OT % in microperfusates of the amygdala ([2]; WT mice, 60 min): 190% and 195% and 144% and 170% and 93% and 133%
- OT % in microperfusates of the amygdala ([2]; WT mice, 90 min): 204% and 156% and 78% and 216% and 359% and 124%

Reference: paper PMC6389896 (Communications Biology, 2019)
